From patent US20220087987A1, “A METHOD FOR TREATING SWI/SNF COMPLEX-DEFICIENT CANCERS COMPRISING GLUTATHIONE (GSH) METABOLIC PATHWAY INHIBITOR” (National Cancer Center, priority 2018, published 2022)
Where a name gives a salt, the structure may show the parent alone. Read-outs that look alike come from different tables or passages of the source. Peptide text beside a SMILES is read from it. * marks the point of attachment. Cbz = O=C(OCc1ccccc1)*; CH2Cl = ClC*; CH2F = FC*

What was measured:
Type in all cases: cell-based, human
[1] = Drug library screen, cell viability (CellTiter-Glo); design: key to Cell viability, WT: % viability relative to DMSO solvent-treated cells; conditions: human; HCT116 ARID1A-WT; 10 μM for 5 days; relative to cells treated with solvent (DMSO); read-out: Cell viability, WT
Method: (§1) ARID1A-WT and ARID1A-KO HCT116 cancer cells were used for screening assays. […] Cell viability was assessed after 5 days using the CellTiter-Glo Luminescent Cell Viability Assay (Promega). Luminescence was measured using an Envision Multi-label plate reader (PerkinElmer). The luminescence reading was used to determine the cell viability relative to that of cells treated with solvent (DMSO). Candidate compounds were considered if viability of ARID1A-KO cells was less than […] was more than 80%.

ARID1A-KO HCT116 cells = assay: as above; design: key to Cell viability, KO: % viability relative to DMSO solvent-treated cells; conditions: for viability at 10 µM: Homo sapiens, HCT-116, 120 h, read-out: Cell viability, KO
Method: as §1

ARID1A-WT HCT116 cells = assay: as above; design: key to Cell viability, WT: % viability relative to DMSO solvent-treated cells
Method: as §1

[2] = HCT116 ARID1A-KO, 10 μM for 5 days, relative to cells treated with solvent (DMSO)
[3] = HCT116 ARID1A-WT, 10 μM for 5 days, relative to cells treated with solvent (DMSO)

Molecule	Cell viability, WT (ARID1A-WT HCT116 cells; [3])	Cell viability, KO (ARID1A-KO HCT116 cells; [2])	other results
C[C@H]1O[C@@H](n2cnc3c(N)ncnc32)C[C@@H]1O [2′,5′-dideoxyadenosine]	–	–	viability [1]: 198%; viability at 10 µM (ARID1A-KO HCT116 cells; [2]): 172%
Cc1ncc2ccccc2c1C#N [4-cyano-3-methylisoquinoline]	–	–	viability at 5 days, 10 μM [1]: 143%; viability at 10 µM (ARID1A-KO HCT116 cells; [2]): 164%
CNc1ccc2oc(C[C@H]3O[C@@]4(CC[C@H]3C)O[C@H]([C@H](C)C(=O)c3ccc[nH]3)[C@H](C)C[C@H]4C)nc2c1C(=O)O [A23187]	–	–	viability [1]: 6.25%; viability at 10 µM (ARID1A-KO HCT116 cells; [2]): 8.67%
CN(C)CC[C@H](CSc1ccccc1)Nc1ccc(S(=O)(=O)NC(=O)c2ccc(N3CCN(Cc4ccccc4-c4ccc(Cl)cc4)CC3)cc2)cc1[N+](=O)[O-] [ABT-737]	–	–	viability at 5 days, 10 μM [1]: 94.4%; viability at 10 µM (ARID1A-KO HCT116 cells; [2]): 89.5%
C[C@]1(c2nc3c(C(N)=O)cccc3[nH]2)CCCN1 [ABT-888 (Veliparib), Veliparib]	–	–	viability at 5 days, 10 μM [1]: 62.7%; viability at 10 µM (ARID1A-KO HCT116 cells; [2]): 53.3%
CNCc1ccc(-c2[nH]c3cc(F)cc4c3c2CCNC4=O)cc1 [AG014699 (Rucaparib), Rucaparib]	–	–	viability at 5 days, 10 μM [1]: 18.7%; viability at 10 µM (ARID1A-KO HCT116 cells; [2]): 16%
CC[C@@]1(O)C[C@H](O[C@H]2C[C@H](N(C)C)[C@H](O[C@H]3C[C@H](O)[C@H](O[C@H]4CCC(=O)[C@H](C)O4)[C@H](C)O3)[C@H](C)O2)c2c(cc3c(c2O)C(=O)c2c(O)cccc2C3=O)[C@H]1C(=O)OC [Aclarubicin]	–	–	viability [1]: 4.48%; viability at 10 µM (ARID1A-KO HCT116 cells; [2]): 5.53%
CCCCC[C@H](CC(=O)NO)C(=O)N[C@H](C(=O)N1CCC[C@H]1CO)C(C)C [Actinonin]	–	–	viability at 5 days, 10 μM [1]: 88.5%; viability at 10 µM (ARID1A-KO HCT116 cells; [2]): 103%
CC(C)C[C@@H](N)[C@H](O)C(=O)N[C@H](C(=O)N[C@H](C(=O)N[C@@H](CC(=O)O)C(=O)O)C(C)C)C(C)C [Amastatin]	–	–	viability at 5 days, 10 μM [1]: 102%; viability at 10 µM (ARID1A-KO HCT116 cells; [2]): 110%
N=C(N)NC(=O)c1nc(Cl)c(N)nc1N [Amiloride]	–	–	viability at 5 days, 10 μM [1]: 106%; viability at 10 µM (ARID1A-KO HCT116 cells; [2]): 113%
CCC1(c2ccc(N)cc2)CCC(=O)NC1=O (stereo not drawn) [Aminoglutethimide]	–	–	viability at 5 days, 10 μM [1]: 108%; viability at 10 µM (ARID1A-KO HCT116 cells; [2]): 107%
N=C(N)NN [Aminoguanidine, HCl]	–	–	viability at 5 days, 10 μM [1]: 188%; viability at 10 µM (ARID1A-KO HCT116 cells; [2]): 128%
C[C@@]1(CO)[C@H](O)CC[C@@]2(C)[C@H]1CC[C@H]1C[C@@H]3C[C@@]12CC[C@]3(O)CO [Aphidicolin]	–	–	viability at 5 days, 10 μM [1]: 14%; viability at 10 µM (ARID1A-KO HCT116 cells; [2]): 11.9%
CNC(=O)c1ccccc1Sc1ccc2c(/C=C/c3ccccn3)n[nH]c2c1 [Axitinib]	–	–	viability at 5 days, 10 μM [1]: 36.4%; viability at 10 µM (ARID1A-KO HCT116 cells; [2]): 42.6%
COc1cc2nc(N3CCCN(C)CC3)nc(NC3CCN(Cc4ccccc4)CC3)c2cc1OC [BIX01294]	–	–	viability at 5 days, 10 μM [1]: 2.57%; viability at 10 µM (ARID1A-KO HCT116 cells; [2]): 4.49%
Cc1ccc2nc(NCCN)c3ncc(C)n3c2c1 [BMS-345541]	–	–	viability at 5 days, 10 μM [1]: 11.9%; viability at 10 µM (ARID1A-KO HCT116 cells; [2]): 19.7%
NC(=O)c1ccc(I)c([N+](=O)[O-])c1 [BSI-201 (Iniparib), Iniparib]	–	–	viability at 5 days, 10 μM [1]: 63.5%; viability at 10 µM (ARID1A-KO HCT116 cells; [2]): 93.3%
C[S+]([O-])c1ccc(-c2nc(-c3ccc(F)cc3)c(-c3ccncc3)[nH]2)cc1 (stereo not drawn) [SB 203580]	163.1226	176.0802	–
O=C1NC(=O)c2c1c1c3ccccc3n3c1c1c2c2ccccc2n1C1CCC3O1 [SB 218078]	101.994	109.2807	–
O=C(Nc1ccc([N+](=O)[O-])cc1O)Nc1ccccc1Br [SB 225002]	5.2146	8.056	–

Molecule	Cell viability, WT (ARID1A-WT HCT116 cells; [3])	Cell viability, KO (ARID1A-KO HCT116 cells; [2])	other results
COC(=O)[C@H](Cc1ccc([N+](=O)[O-])cc1)NC(=O)c1cccc2ccccc12 [SB 328437]	104.1947	112.6489	–
NC(=O)c1ccc(-c2nc(-c3ccccn3)c(-c3ccc4c(c3)OCO4)[nH]2)cc1 [SB 431542]	85.04	85.02	–
Fc1ccc(Cl)cc1-c1nc(Nc2ccncc2)c2nccnc2n1 [SD208]	73.72	78.9	–
NC(=O)C1CCCc2c1[nH]c1ccc(Cl)cc21 (stereo not drawn) [SIRT1 inhibitor III]	92.15	98.94	–
CC(C)c1cc(/C=C(\C#N)C(=O)NCCCc2ccccc2)cc(C(C)C)c1O [SU1498]	165.2374	119.3751	–
O=CN1CCN(c2ccc(/C=C3\C(=O)Nc4ccccc43)cc2)CC1 [SU4984]	129.369	172.2779	–
Cc1c[nH]c(/C=C2\C(=O)Nc3ccccc32)c1CCC(=O)O [SU5402]	110.6763	139.2404	–
CN(C)S(=O)(=O)c1ccc2c(c1)/C(=C/c1cc3c([nH]1)CCCC3)C(=O)N2 [SU6656]	–	–	Cell viability, WT (ARID1A-WT HCT116 cells): 124.1846; Cell viability, KO (ARID1A-KO HCT116 cells): 170.9958
Cc1[nH]c(/C=C2\C(=O)Nc3ccc(S(=O)(=O)N(C)c4cccc(Cl)c4)cc32)c(C)c1C(=O)N1CCN(C)CC1 [SU11274]	71.94	82.98	–
CCN(CC)CCNC(=O)c1c(C)[nH]c(/C=C2\C(=O)Nc3ccc(Cl)cc32)c1C [SU11652]	4.735	8.987	–
Cn1cc(/C=C2\C(=O)Nc3ccc(S(N)(=O)=O)cc32)c2ccccc21 [Syk inhibitor]	–	–	Cell viability, WT (ARID1A-WT HCT116 cells): 58.62; Cell viability, KO (ARID1A-KO HCT116 cells): 91.09
Brc1c(Br)c(Br)c2n[nH]nc2c1Br [TBB]	187.1148	147.5332	–
CCN1/C(=C/C(C)=O)Sc2ccc(OC)cc21 [TG003]	115.1966	138.6968	–
Cc1cccc(-c2[nH]ncc2-c2ccc3ncccc3n2)n1 [TGF-b RI kinase inhibitor II]	90.9	104.5326	–
C[n+]1ccc(-c2c3nc(c(-c4cc[n+](C)cc4)c4ccc([nH]4)c(-c4cc[n+](C)cc4)c4ccc([nH]4)c(-c4cc[n+](C)cc4)c4nc2C=C4)C=C3)cc1 [TMPyP4]	19.35	32.37	–
CCCCCCCCCCCCCCOc1ccc(C(=O)O)o1 [TOFA]	75.72	74.56	–
Nc1cccc(-c2cc3c(Oc4cccc(O)c4)ncnc3[nH]2)c1 [TWS119]	–	–	Cell viability, WT (ARID1A-WT HCT116 cells): 30.07; Cell viability, KO (ARID1A-KO HCT116 cells): 23.39
Cc1cc(C=C2C(=O)C=CC2=O)cc(C)c1O [TX-1918]	117.0659	173.7673	–
CN(C)CCCCC(=O)Nc1ccc(NC(=S)NC(=O)c2ccc(C(C)(C)C)cc2)cc1 [Tenovin-6]	2.514	5.579	–
O=C(NCc1ccccc1)c1csc(Nc2ccncn2)n1 [Thiazovivin]	50.22	30.49	–

Molecule	Cell viability, WT (ARID1A-WT HCT116 cells; [3])	Cell viability, KO (ARID1A-KO HCT116 cells; [2])	other results
CC(C)n1nc(-c2cc3cc(O)ccc3[nH]2)c2c(N)ncnc21 [Torkinib]	8.777	9.988	–
CC(/C=C/C(=O)NO)=C\[C@@H](C)C(=O)c1ccc(N(C)C)cc1 [Trichostatin A]	6.352	5	–
CCOC(=O)c1c(C)[nH]c(/C=C2\C(=O)Nc3ccccc32)c1C [VEGF recptor 2 kinase inhibitor I]	106.2493	109.4563	–
CC(C)C[C@H](NC(=O)CNC(=O)OCc1ccccc1)C(=O)N[C@@H](Cc1ccccc1)C(=O)CCl [Z-GLF-CMK] (Cbz-Gly-Leu-Phe-CH2Cl)	4.255	4.8907	–
COC(=O)C[C@H](NC(=O)[C@H](C)NC(=O)[C@@H](NC(=O)OCc1ccccc1)C(C)C)C(=O)CF [Z-VAD-FMK] (Cbz-Val-Ala-Asp(OMe)-CH2F)	177.3841	128.7264	–
Cc1ccc(NC(=O)c2cccc(N(C)C)c2)cc1NC(=O)c1ccc(O)cc1 [ZM 336372]	121.6939	179.4192	–
C[C@H]1CCC/C=C/[C@@H]2C[C@H](O)C[C@H]2[C@H](O)/C=C/C(=O)O1 [brefeldin A]	1.838	4.578	–
c1cc(-c2cnn3cc(-c4ccc(OCCN5CCCCC5)cc4)cnc23)ccn1 [compound C]	6.447	9.381	–
Akt Inhibitor IV	3.276	5.523	–
Antimycin A1	4.328	7.111	–
Bleomycin sulfate	27.28	30.2	–
Cytostatin	10.14	7.493	–
GSK-3 inhibitor IX	105.4779	147.7846	–
MEK inhibitor I	77.6	117.4589	–
Tamoxifen, citrate	24.8	18.66	–
Tunicamycin	4.6969	6.011	–
Valeryl salicylate	169.5428	118.3391	–
a-Amanitin	8.977	10.21	–
b-Rubromycin	88.7	93.87	–
indirubin-3′-monoxime	105.9954	124.9767	–
